Measured values from patent publication US20230085307A1, “PYRIDAZINONE COMPOUND AND HERBICIDE” (NISSAN CHEMICAL CORPORATION, priority 2019, published 2023).

How the values were obtained:
[1] = test system: persian speedwell; assay: Test Example 5: herbicidal effect by foliage application, plastic box (Table 20, symbol R); format: in vivo, Persian speedwell (Veronica persica); settings: foliage application, 320 g/ha, evaluated three weeks after application
Summary of the method: (§1)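 Foliar spray test: emulsion formulation diluted in water to a set application rate, sprayed onto 14-day-old plants raised in diluvial soil at 25° C to 30° C under glass. Both herbicidal effect and crop effect rated visually three weeks later.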

[2] = test system: Italian ryegrass; assay: Test Example 4: herbicidal effect by soil treatment (Table 19, symbol K); format: in vivo, Italian ryegrass (Lolium multiflorum); settings: amount of applied herbicide 320 g/ha
Summary of the method: (§2)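 Herbicidal effect was rated 3 weeks after treatment, using the scoring criteria of an earlier test. The compound, formulated as an emulsion and diluted in water to a set herbicide amount, had been sprayed uniformly on soil over freshly sown seeds. Growth took place in a greenhouse at 25° C. to 30° C.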

[3] = test system: lambsquarters; assay: Test Example 4: herbicidal effect by soil treatment (Table 19, symbol O); format: in vivo, lambsquarters (Chenopodium album); settings: amount of applied herbicide 320 g/ha
Summary of the method: as §2

[4] = test system: chickweed; assay: Test Example 4: herbicidal effect by soil treatment (Table 19, symbol P); format: in vivo, common chickweed (Stellaria media); settings: amount of applied herbicide 320 g/ha
Summary of the method: as §2

[5] = test system: false cleavers; assay: Test Example 4: herbicidal effect by soil treatment (Table 19, symbol Q); format: in vivo, false cleavers (Galium spurium); settings: amount of applied herbicide 320 g/ha
Summary of the method: as §2

[6] = test system: redroot pigweed; assay: Test Example 5: herbicidal effect by foliage application, plastic box (Table 20, symbol N); format: in vivo, redroot pigweed (Amaranthus retroflexus); settings: foliage application, 320 g/ha, evaluated three weeks after application
Summary of the method: as §1

[7] = test system: green foxtail; assay: Test Example 4: herbicidal effect by soil treatment (Table 19, symbol G); format: in vivo, green foxtail (Setaria viridis); settings: amount of applied herbicide 320 g/ha
Summary of the method: as §2

[8] = test system: chickweed; assay: Test Example 5: herbicidal effect by foliage application, plastic box (Table 20, symbol P); format: in vivo, common chickweed (Stellaria media); settings: foliage application, 320 g/ha, evaluated three weeks after application
Summary of the method: as §1

[9] = test system: blackgrass; assay: Test Example 5: herbicidal effect by foliage application, plastic box (Table 20, symbol J); format: in vivo, blackgrass (Alopecurus myosuroides); settings: foliage application, 320 g/ha, evaluated three weeks after application
Summary of the method: as §1

[10] = test system: green foxtail; assay: Test Example 5: herbicidal effect by foliage application, plastic box (Table 20, symbol G); format: in vivo, green foxtail (Setaria viridis); settings: foliage application, 320 g/ha, evaluated three weeks after application
Summary of the method: as §1

[11] = test system: velvetleaf; assay: Test Example 4: herbicidal effect by soil treatment (Table 19, symbol M); format: in vivo, velvetleaf (Abutilon theophrasti); settings: amount of applied herbicide 320 g/ha
Summary of the method: as §2

[12] = test system: rice flat sedge; assay: Test Example 3: herbicidal effect by foliage application, Wagner pot (Table 18, symbol E); format: in vivo, rice flat sedge (Cyperus iria); settings: amount of applied herbicide 320 g/ha
Summary of the method: (§3)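 Plants were sown in alluvial soil held under 0.1–0.5 cm standing water and grown 14 days in a greenhouse at 25–30 °C. An emulsifiable formulation, water-diluted to the set dose, was then sprayed onto the foliage, and effects were scored three weeks later using previously defined criteria.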

[13] = test system: barnyard grass; assay: Test Example 3: herbicidal effect by foliage application, Wagner pot (Table 18, symbol H); format: in vivo, barnyard grass (Echinochloa crus-galli); settings: amount of applied herbicide 320 g/ha
Summary of the method: as §3

[14] = test system: Italian ryegrass; assay: Test Example 5: herbicidal effect by foliage application, plastic box (Table 20, symbol K); format: in vivo, Italian ryegrass (Lolium multiflorum); settings: foliage application, 320 g/ha, evaluated three weeks after application
Summary of the method: as §1

[15] = test system: barnyard grass; assay: Test Example 4: herbicidal effect by soil treatment (Table 19, symbol H); format: in vivo, barnyard grass (Echinochloa crus-galli); settings: amount of applied herbicide 320 g/ha
Summary of the method: as §2

[16] = test system: lambsquarters; assay: Test Example 5: herbicidal effect by foliage application, plastic box (Table 20, symbol O); format: in vivo, lambsquarters (Chenopodium album); settings: foliage application, 320 g/ha, evaluated three weeks after application
Summary of the method: as §1

[17] = test system: wild oat; assay: Test Example 5: herbicidal effect by foliage application, plastic box (Table 20, symbol I); format: in vivo, wild oat (Avena fatua); settings: foliage application, 320 g/ha, evaluated three weeks after application
Summary of the method: as §1

[18] = test system: Chinese sprangletop; assay: Test Example 3: herbicidal effect by foliage application, Wagner pot (Table 18, symbol D); format: in vivo, chinese sprangletop (Leptochloa chinensis); settings: amount of applied herbicide 320 g/ha
Summary of the method: as §3

[19] = test system: redroot pigweed; assay: Test Example 4: herbicidal effect by soil treatment (Table 19, symbol N); format: in vivo, redroot pigweed (Amaranthus retroflexus); settings: amount of applied herbicide 320 g/ha
Summary of the method: as §2

[20] = test system: blackgrass; assay: Test Example 4: herbicidal effect by soil treatment (Table 19, symbol J); format: in vivo, blackgrass (Alopecurus myosuroides); settings: amount of applied herbicide 320 g/ha
Summary of the method: as §2

[21] = test system: persian speedwell; assay: Test Example 4: herbicidal effect by soil treatment (Table 19, symbol R); format: in vivo, Persian speedwell (Veronica persica); settings: amount of applied herbicide 320 g/ha
Summary of the method: as §2

[22] = test system: wild oat; assay: Test Example 4: herbicidal effect by soil treatment (Table 19, symbol I); format: in vivo, wild oat (Avena fatua); settings: amount of applied herbicide 320 g/ha
Summary of the method: as §2

[23] = test system: false cleavers; assay: Test Example 5: herbicidal effect by foliage application, plastic box (Table 20, symbol Q); format: in vivo, false cleavers (Galium spurium); settings: foliage application, 320 g/ha, evaluated three weeks after application
Summary of the method: as §1

[24] = test system: southern crabgrass; assay: Test Example 4: herbicidal effect by soil treatment (Table 19, symbol F); format: in vivo, southern crabgrass (Digitaria ciliaris); settings: amount of applied herbicide 320 g/ha
Summary of the method: as §2

[25] = test system: barnyard grass; assay: Test Example 5: herbicidal effect by foliage application, plastic box (Table 20, symbol H); format: in vivo, barnyard grass (Echinochloa crus-galli); settings: foliage application, 320 g/ha, evaluated three weeks after application
Summary of the method: as §1

[26] = test system: windgrass; assay: Test Example 5: herbicidal effect by foliage application, plastic box (Table 20, symbol L); format: in vivo, windgrass (Apera spica-venti); settings: foliage application, 320 g/ha, evaluated three weeks after application
Summary of the method: as §1

[27] = test system: southern crabgrass; assay: Test Example 5: herbicidal effect by foliage application, plastic box (Table 20, symbol F); format: in vivo, southern crabgrass (Digitaria ciliaris); settings: foliage application, 320 g/ha, evaluated three weeks after application
Summary of the method: as §1

[28] = test system: velvetleaf; assay: Test Example 5: herbicidal effect by foliage application, plastic box (Table 20, symbol M); format: in vivo, velvetleaf (Abutilon theophrasti); settings: foliage application, 320 g/ha, evaluated three weeks after application
Summary of the method: as §1

[29] = test system: windgrass; assay: Test Example 4: herbicidal effect by soil treatment (Table 19, symbol L); format: in vivo, windgrass (Apera spica-venti); settings: amount of applied herbicide 320 g/ha
Summary of the method: as §2

| Compound | herbicidal effect on R: persian speedwell [1] | K: Italian ryegrass, herbicidal effect rating [2] | O: lambsquarters, herbicidal effect rating [3] | P: chickweed, herbicidal effect rating [4] | Q: false cleavers, herbicidal effect rating [5] | herbicidal effect on N: redroot pigweed [6] | G: green foxtail, herbicidal effect rating [7] | herbicidal effect on P: chickweed [8] | herbicidal effect on J: blackgrass [9] | herbicidal effect on G: green foxtail [10] | M: velvetleaf, herbicidal effect rating [11] | herbicidal effect on E: rice flat sedge [12] | herbicidal effect on H: barnyard grass [13] | herbicidal effect on K: Italian ryegrass [14] | H: barnyard grass, herbicidal effect rating [15] | herbicidal effect on O: lambsquarters [16] | herbicidal effect on I: wild oat [17] | herbicidal effect on D: Chinese sprangletop [18] | N: redroot pigweed, herbicidal effect rating [19] | J: blackgrass, herbicidal effect rating [20] | other results |
| --- | --- | --- | --- | --- | --- | --- | --- | --- | --- | --- | --- | --- | --- | --- | --- | --- | --- | --- | --- | --- | --- |
| CCOc1cc(F)ccc1-c1sc2ccc(Cl)cc2c1-c1c(O)c(C)nn(C)c1=O [2-115] | 5 (Herbicidal rate of 90% or more (almost completely withered)) | 0 (Herbicidal rate of 5% or less (almost no effect)) | 3 (Herbicidal rate of 40% or more and less than 70%) | 3 (Herbicidal rate of 40% or more and less than 70%) | 4 (Herbicidal rate of 70% or more and less than 90%) | 5 (Herbicidal rate of 90% or more (almost completely withered)) | 2 (Herbicidal rate of 20% or more and less than 40%) | 5 (Herbicidal rate of 90% or more (almost completely withered)) | 3 (Herbicidal rate of 40% or more and less than 70%) | 3 (Herbicidal rate of 40% or more and less than 70%) | 1 (Herbicidal rate of 5% or more and less than 20%) | 3 (Herbicidal rate of 40% or more and less than 70%) | 5 (Herbicidal rate of 90% or more (almost completely withered)) | 0 (Herbicidal rate of 5% or less (almost no effect)) | 3 (Herbicidal rate of 40% or more and less than 70%) | 3 (Herbicidal rate of 40% or more and less than 70%) | 1 (Herbicidal rate of 5% or more and less than 20%) | 1 (Herbicidal rate of 5% or more and less than 20%) | 5 (Herbicidal rate of 90% or more (almost completely withered)) | 4 (Herbicidal rate of 70% or more and less than 90%) | R: persian speedwell, herbicidal effect rating [21]: 4 (Herbicidal rate of 70% or more and less than 90%); I: wild oat, herbicidal effect rating [22]: 0 (Herbicidal rate of 5% or less (almost no effect)); herbicidal effect on Q: false cleavers [23]: 5 (Herbicidal rate of 90% or more (almost completely withered)); F: southern crabgrass, herbicidal effect rating [24]: 3 (Herbicidal rate of 40% or more and less than 70%); herbicidal effect on H: barnyard grass [25]: 5 (Herbicidal rate of 90% or more (almost completely withered)); herbicidal effect on L: windgrass [26]: 3 (Herbicidal rate of 40% or more and less than 70%); herbicidal effect on F: southern crabgrass [27]: 4 (Herbicidal rate of 70% or more and less than 90%); herbicidal effect on M: velvetleaf [28]: 5 (Herbicidal rate of 90% or more (almost completely withered)); L: windgrass, herbicidal effect rating [29]: 0 (Herbicidal rate of 5% or less (almost no effect)) |
| Cc1nn(C)c(=O)c(-c2c(-c3ccc4c(c3)OCCO4)sc3ccc(Cl)cc23)c1O [2-127] | 5 (Herbicidal rate of 90% or more (almost completely withered)) | 0 (Herbicidal rate of 5% or less (almost no effect)) | 4 (Herbicidal rate of 70% or more and less than 90%) | 3 (Herbicidal rate of 40% or more and less than 70%) | 0 (Herbicidal rate of 5% or less (almost no effect)) | 3 (Herbicidal rate of 40% or more and less than 70%) | 0 (Herbicidal rate of 5% or less (almost no effect)) | 5 (Herbicidal rate of 90% or more (almost completely withered)) | 0 (Herbicidal rate of 5% or less (almost no effect)) | 0 (Herbicidal rate of 5% or less (almost no effect)) | 4 (Herbicidal rate of 70% or more and less than 90%) | 5 (Herbicidal rate of 90% or more (almost completely withered)) | 3 (Herbicidal rate of 40% or more and less than 70%) | 0 (Herbicidal rate of 5% or less (almost no effect)) | 0 (Herbicidal rate of 5% or less (almost no effect)) | 3 (Herbicidal rate of 40% or more and less than 70%) | 0 (Herbicidal rate of 5% or less (almost no effect)) | 0 (Herbicidal rate of 5% or less (almost no effect)) | 0 (Herbicidal rate of 5% or less (almost no effect)) | 0 (Herbicidal rate of 5% or less (almost no effect)) | R: persian speedwell, herbicidal effect rating [21]: 5 (Herbicidal rate of 90% or more (almost completely withered)); I: wild oat, herbicidal effect rating [22]: 0 (Herbicidal rate of 5% or less (almost no effect)); herbicidal effect on Q: false cleavers [23]: 0 (Herbicidal rate of 5% or less (almost no effect)); F: southern crabgrass, herbicidal effect rating [24]: 0 (Herbicidal rate of 5% or less (almost no effect)); herbicidal effect on H: barnyard grass [25]: 1 (Herbicidal rate of 5% or more and less than 20%); herbicidal effect on L: windgrass [26]: 0 (Herbicidal rate of 5% or less (almost no effect)); herbicidal effect on F: southern crabgrass [27]: 0 (Herbicidal rate of 5% or less (almost no effect)); herbicidal effect on M: velvetleaf [28]: 4 (Herbicidal rate of 70% or more and less than 90%); L: windgrass, herbicidal effect rating [29]: 0 (Herbicidal rate of 5% or less (almost no effect)) |
